Measurements published in US20200188466A1, “COMPOSITIONS OF SCHISANDRA EXTRACTS AND METHODS THEREOF” (Reyoung Corporation, priority 2017, published 2020).
Where two headings read alike, the source gives them in different places.

Assay: Plasma kinetic study of colchicine with and without Schisandrin A
Format: in vivo
Conditions: male, Sprague Dawley, rat, po, 3 mg/kg; for AUC(0-t): read-out: AUC0→t of colchicine; for AUC(0-inf): read-out: AUC0→∞ of colchicine; for MRT last: read-out: MRT0→t of colchicine; for MRT inf: read-out: MRT0→∞ of colchicine; for half-life: read-out: T1/2 of colchicine (converted)
Description: 42 Male Sprague Dawley rats (weight, 170-210 g) were maintained on a 12-h light/dark cycle with free access to water and lab chow for 10-14 h prior to the experiment. Rats were randomly divided into 7 groups (n=6 each) and groups 2-7 received 0 mg/kg, 6.3 mg/kg, and 12.6 mg/kg, 25.2 mg/kg, 50.4 mg/kg and 63.0 mg/kg of Schisandrin A in 1% CMC-Na (300-800 cps) via oral administration, respectively. After 5 minutes, all the groups received 3.0 mg/kg of colchicine in a solution of 2% DMSO-98% sterile water via oral administration.
After colchicine treatment, blood samples were collected from individual rat at 5 min, 15 min, 0.5 h, 1 h, 2 h, 4 h, 6 h, 8 h, 10 h, 24 h respectively. Plasma was separated by centrifugation at 8000 rpm for 6 minutes at 4° C. and kept at −80° C. until analysis. Plasma homogenate was injected into LC-MS/MS for analysis. Pharmacokinetic parameters of colchicine after a single oral dose of colchicine (3.0 mg/kg) in rats with and without different dose of Schisandrin A, including area under the concentration-time curve (AUC), mean residence time (MRT) and terminal elimination half-life (T1/2), Cmax, and Tmax are shown in Table 5.

[1] = Group1, rats, colchicine 3.0 mg/kg oral, no Schisandrin A dose stated
[2] = Group2, rats, Schisandrin A 0 mg/kg oral 5 min before colchicine 3.0 mg/kg oral
[3] = Group3, rats, Schisandrin A 6.3 mg/kg oral 5 min before colchicine 3.0 mg/kg oral
[4] = Group4, rats, Schisandrin A 12.6 mg/kg oral 5 min before colchicine 3.0 mg/kg oral
[5] = Group5, rats, Schisandrin A 25.2 mg/kg oral 5 min before colchicine 3.0 mg/kg oral
[6] = Group6, rats, Schisandrin A 50.4 mg/kg oral 5 min before colchicine 3.0 mg/kg oral
[7] = Group7, rats, Schisandrin A 63.0 mg/kg oral 5 min before colchicine 3.0 mg/kg oral

`COc1cc2c(c(OC)c1OC)-c1ccc(OC)c(=O)cc1[C@@H](NC(C)=O)CC2` [colchicine] gave a Cmax [1] of 13.4 ± 4.38 ng/mL, a Tmax [1] of 0.17 ± 0.09 h and an AUC(0-t) [1] of 48.9 ± 14.9 ng·h/mL. It also gave an AUC(0-inf) [1] of 57.5 ± 16.1 ng·h/mL, an MRT last [1] of 4.54 ± 1.33 h and an MRT inf [1] of 6.99 ± 1.99 h. The half-life [1] was 5.2 ± 2.31 h, the Cmax [2] was 10.2 ± 2.63 ng/mL and the Tmax [2] was 0.22 ± 0.07 h. It also gave an AUC(0-t) [2] of 32.9 ± 20.9 ng·h/mL, an AUC(0-inf) [2] of 40.6 ± 22.2 ng·h/mL and an MRT last [2] of 3.89 ± 1.74 h. It also gave an MRT inf [2] of 6.86 ± 2.77 h, a half-life [2] of 4.67 ± 2.04 h and a Cmax [3] of 24.4 ± 6.12 ng/mL. The Tmax [3] was 0.19 ± 0.09 h, the AUC(0-t) [3] was 74.4 ± 27 ng·h/mL and the AUC(0-inf) [3] was 84.5 ± 30.5 ng·h/mL. It also gave an MRT last [3] of 5.04 ± 1.86 h, an MRT inf [3] of 7.67 ± 3.34 h and a half-life [3] of 6.12 ± 2.86 h. The Cmax [4] was 25.7 ± 9.67 ng/mL, the Tmax [4] was 0.19 ± 0.09 h and the AUC(0-t) [4] was 71 ± 33.3 ng·h/mL. It also gave an AUC(0-inf) [4] of 79.7 ± 34.9 ng·h/mL, an MRT last [4] of 3.95 ± 1.2 h and an MRT inf [4] of 6.54 ± 3.18 h. For the same molecule, the half-life [4] was 6.56 ± 4.7 h, the Cmax [5] was 29.3 ± 11.9 ng/mL and the Tmax [5] was 0.11 ± 0.07 h. For the same molecule, the AUC(0-t) [5] was 75.5 ± 27.6 ng·h/mL, the AUC(0-inf) [5] was 86.8 ± 36.2 ng·h/mL and the MRT last [5] was 4.04 ± 1.44 h. The MRT inf [5] was 7.29 ± 4.72 h, the half-life [5] was 7.53 ± 6.49 h and the Cmax [6] was 48.2 ± 12.4 ng/mL. The Tmax [6] was 0.31 ± 0.16 h, the AUC(0-t) [6] was 151 ± 41.4 ng·h/mL and the AUC(0-inf) [6] was 186 ± 70.5 ng·h/mL. For the same molecule, the MRT last [6] was 5.1 ± 0.77 h, the MRT inf [6] was 11.7 ± 6.87 h and the half-life [6] was 13 ± 6.29 h. It also gave a Cmax [7] of 33.8 ± 14 ng/mL, a Tmax [7] of 0.26 ± 0.13 h and an AUC(0-t) [7] of 84.8 ± 39.3 ng·h/mL. For the same molecule, the AUC(0-inf) [7] was 98.7 ± 41.9 ng·h/mL, the MRT last [7] was 4.09 ± 1.76 h and the MRT inf [7] was 7.52 ± 3.62 h. For the same molecule, the half-life [7] was 7.59 ± 3.65 h.
